In one assay the target is T1, hP2X2/3H (Homo sapiens, UniProt P56373+Q9UBL9).
T1 construct: expressed in transfected cells; host or cells: e.g. HEK293 or 1321N1
T1 sequence (Q9UBL9 1-471): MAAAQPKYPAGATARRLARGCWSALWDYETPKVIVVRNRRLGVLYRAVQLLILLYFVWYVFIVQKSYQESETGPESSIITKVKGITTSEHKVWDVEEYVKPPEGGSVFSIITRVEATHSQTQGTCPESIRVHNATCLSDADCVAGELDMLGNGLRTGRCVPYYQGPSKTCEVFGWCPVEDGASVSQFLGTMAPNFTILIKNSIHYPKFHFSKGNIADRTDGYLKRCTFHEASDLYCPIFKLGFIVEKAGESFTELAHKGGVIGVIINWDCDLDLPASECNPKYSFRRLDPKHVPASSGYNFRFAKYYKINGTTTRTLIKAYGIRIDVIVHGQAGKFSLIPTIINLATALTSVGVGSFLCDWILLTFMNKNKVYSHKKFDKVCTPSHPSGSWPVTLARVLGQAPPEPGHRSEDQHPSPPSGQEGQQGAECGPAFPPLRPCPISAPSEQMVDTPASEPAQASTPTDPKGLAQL
T1 sequence (P56373 1-397): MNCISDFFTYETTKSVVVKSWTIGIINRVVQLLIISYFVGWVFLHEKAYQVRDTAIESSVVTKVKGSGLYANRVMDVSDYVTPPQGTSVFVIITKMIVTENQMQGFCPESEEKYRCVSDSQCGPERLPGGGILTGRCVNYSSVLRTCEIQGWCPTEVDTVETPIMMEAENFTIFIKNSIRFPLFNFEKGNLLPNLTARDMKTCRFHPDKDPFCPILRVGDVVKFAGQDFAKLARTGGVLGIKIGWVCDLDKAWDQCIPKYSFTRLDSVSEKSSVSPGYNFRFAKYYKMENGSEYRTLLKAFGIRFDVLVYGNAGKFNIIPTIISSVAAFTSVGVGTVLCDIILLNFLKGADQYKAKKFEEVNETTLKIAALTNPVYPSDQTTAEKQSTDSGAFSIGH
The experiment in a line: Calcium uptake assay (P2X antagonist assay), P2X2/3 heteromer. The assay is classed as cell-based. Particulars: read-out: IC50 hP2X2/3H. In outline: (§1)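 Stably or transiently transfected HEK293 or 1321N1 cells; the heteromer is made by adding P2X3 to a P2X2-stable line, with heteromer function isolated pharmacologically. The peak-minus-baseline FLIPR calcium signal gives % inhibition and a 4-parameter-logistic IC50.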

A further assay concerns the target T2, hP2X3 (Homo sapiens, UniProt P56373).
T2 construct: expressed in transfected cells; host or cells: e.g. HEK293 or 1321N1
T2 sequence (P56373 1-397): T1 sequence (P56373 1-397)
Description: Calcium uptake assay (P2X antagonist assay), P2X3 homomer. The following applies: read-out: IC50 hP2X3. Type of assay: cell-based. A digest of the protocol:
as §1

[1] abbreviates: Ca influx (calcium uptake assay), hP2X2/3H.
[2] abbreviates: Ca influx (calcium uptake assay), hP2X3.
The mark [3] stands for this setting: Ca influx, calcium uptake assay.

Read-outs that look alike come from different tables or passages of the source.

With `Cc1ccc(-c2cc(C(=O)N[C@H](C)c3cnc(C)nc3)cc(C(O)c3cncn3C)c2)cc1` (stereo partly shown) [Compound 354], the IC50 on hP2X2/3H (setting [1]) and at hP2X3 (setting [2]) was less than 100 nM each time.
In the case of `Cc1ccc(-c2cc(OC3CNCC3O)cc(C(=O)N[C@H](C)c3cnc(C)nc3)c2)nc1` (stereo partly shown) [Compound 355], the figures for the IC50 at hP2X2/3H (setting [1]) and on hP2X3 (setting [2]) were greater than 1000 nM and less than 100 nM, respectively.
In the case of `Cc1ccc(-c2cc(C(=O)N[C@H](C)c3cnc(C)nc3)cc(C(O)CO)c2)nc1` (stereo partly shown) [Compound 356], the IC50 is 100 to 500 nM at hP2X2/3H (setting [1]) and less than 100 nM at hP2X3 (setting [2]).
The matching figures for `Cc1ccc(-c2cc(OC3CCOC3)cc(C(=O)N[C@H](C)c3cnc(C)nc3)c2)nc1` (stereo partly shown) [Compound 357]: 100 to 500 nM and less than 100 nM.
With `Cc1ccc(-c2cc(OC3CCOC3)cc(C(=O)N[C@H](C)c3cnc(C)nc3)c2)c(C#N)c1` (stereo partly shown) [Compound 358], the IC50 at hP2X2/3H (setting [1]) and at hP2X3 (setting [2]) was less than 100 nM each time.
In the case of `Cc1ccc(-c2cc(OC3CCOC3)cc(C(=O)N[C@H](C)c3cnc(C)nc3)c2)cc1` (stereo partly shown) [Compound 359], the IC50 on hP2X2/3H (setting [1]) and at hP2X3 (setting [2]) was less than 100 nM in each case.
On to `Cc1ccc(-c2cc(C(=O)N[C@H](C)c3cnc(C)nc3)cc(C(O)CO)c2)c(C#N)c1` (stereo partly shown) [Compound 360], for which the IC50 on hP2X2/3H (setting [1]) is 100 to 500 nM; at hP2X3 (setting [2]), less than 100 nM.
On the same counts, the results for `Cc1ccc(-c2cc(C(=O)N[C@H](C)c3cnc(C)nc3)cc(C(O)CO)c2)cc1` (stereo partly shown) [Compound 361] are 100 to 500 nM and less than 100 nM.
Consider `Cc1ccc(-c2cc(OC3COCC3O)cc(C(=O)N[C@H](C)c3cnc(C)nc3)c2)cc1` (stereo partly shown) [Compound 362], for which the IC50 at hP2X2/3H (setting [1]) and at hP2X3 (setting [2]) was less than 100 nM each time.
With `Cc1ccc(-c2cc(OC3COCC3O)cc(C(=O)N[C@H](C)c3cnc(C)nc3)c2)c(C#N)c1` (stereo partly shown) [Compound 363], the IC50 at hP2X2/3H (setting [1]) and on hP2X3 (setting [2]) was less than 100 nM each time.
As to `Cc1ccc(-c2cc(OC3COCC3O)cc(C(=O)N[C@H](C)c3cnc(C)nc3)c2)nc1` (stereo partly shown) [Compound 364], the IC50 on hP2X2/3H (setting [1]) is 100 to 500 nM; at hP2X3 (setting [2]), less than 100 nM.
On the same counts, the results for `Cc1ccc(-c2cc(C(=O)NCc3ccc(C)nc3)cc(C(O)CN3CCOCC3)c2)cc1` (stereo not shown) [Compound 365, 5-(1-Hydroxy-2-morpholinoethyl)-4′-methyl-N-((6-methylpyridin-3-yl)methyl)biphenyl-3-carboxamide] are less than 100 nM and less than 100 nM.
For `Cc1ccc(-c2cc(C(=O)NCc3ccc(C)nc3)cc(C(O)CN3CCN(C)CC3)c2)cc1` (stereo not shown) [Compound 366], the IC50 on hP2X2/3H (setting [1]) was 501 to 1000 nM; at hP2X3 (setting [2]), less than 100 nM.
On the same counts, the results for `Cc1ccc(-c2cc(C(=O)NCc3ccc(C)nc3)cc(C(O)CN(C)C)c2)cc1` (stereo not shown) [Compound 367] are greater than 1000 nM and less than 100 nM.
The matching figures for `Cc1ccc(-c2cc(C(=O)NCc3ccc(C)nc3)cc(C(O)CN(C)CCO)c2)cc1` (stereo not shown) [Compound 368]: 501 to 1000 nM and less than 100 nM.
On the same counts, the results for `Cc1ncc([C@@H](C)NC(=O)c2cc(-c3ccccc3)cc(S(C)(=O)=O)c2)cn1` [Compound 370] are 501 to 1000 nM and less than 100 nM.
Turning to `Cc1ccc(-c2cc(C(=O)NC(C)c3ccc(Cl)c(S(C)(=O)=O)c3)cc(S(C)(=O)=O)c2)nc1` (stereo not shown) [Compound 371], the IC50 was 100 to 500 nM on hP2X2/3H (setting [1]) and less than 100 nM at hP2X3 (setting [2]).
The matching figures for `Cc1ccc(-c2cc(Oc3ncc(CO)s3)cc(C(=O)N[C@H](C)c3ccc(C)nc3)c2)nc1` [Compound 372]: less than 100 nM and less than 100 nM.
On the same counts, the results for `Cc1ccc(-c2cc(Oc3nc(C)cs3)cc(C(=O)N[C@H](C)c3ccc(C)nc3)c2)c(C#N)c1` [Compound 373] are less than 100 nM and less than 100 nM.
The matching figures for `Cc1ccc(-c2cc(Oc3nc(C)cs3)cc(C(=O)N[C@H](C)c3ccc(C)nc3)c2)nc1` [Compound 374]: less than 100 nM and less than 100 nM.
On to `Cc1ccc(-c2cc(Oc3nc(-c4ccccc4)cs3)cc(C(=O)N[C@H](C)c3ccc(C)nc3)c2)nc1` [Compound 375], for which the IC50 on hP2X2/3H (setting [1]) and on hP2X3 (setting [2]) was 100 to 500 nM throughout.
Take `Cc1ccc(-c2cc(Oc3nc4ccccc4s3)cc(C(=O)N[C@H](C)c3ccc(C)nc3)c2)nc1` [Compound 376]: the IC50 at hP2X2/3H (setting [1]) and at hP2X3 (setting [2]) was less than 100 nM throughout.
On to `Cc1ccc(-c2cc(OC(C)CO)cc(C(=O)N[C@H](C)c3ccc(C)nc3)c2)c(C#N)c1` (stereo partly shown) [Compound 377], for which the IC50 on hP2X2/3H (setting [1]) and at hP2X3 (setting [2]) was less than 100 nM in each case.
Consider `COCC(CO)Oc1cc(C(=O)N[C@H](C)c2ccc(C)nc2)cc(-c2ccc(C)cc2C#N)c1` (stereo partly shown) [Compound 378], for which the IC50 at hP2X2/3H (setting [1]) and at hP2X3 (setting [2]) was less than 100 nM each time.
For the molecule `CCC(O)c1cc(C(=O)N[C@H](C)c2ccc(C)nc2)cc(-c2ccc(C)cc2)c1` (stereo partly shown) [Compound 379], the IC50 at hP2X2/3H (setting [1]) and at hP2X3 (setting [2]) was less than 100 nM each time.
With `COCC(OC)c1cc(C(=O)N[C@H](C)c2ccc(C)nc2)cc(-c2ccc(C)cc2)c1` (stereo partly shown) [Compound 380], the IC50 on hP2X2/3H (setting [1]) and at hP2X3 (setting [2]) was less than 100 nM throughout.
`Cc1ccc(-c2cc(Oc3nc(C)cs3)cc(C(=O)N[C@H](C)c3ccc(C)nc3)c2)cc1` [Compound 381]: the IC50 at hP2X2/3H (setting [1]) and at hP2X3 (setting [2]) was less than 100 nM in each case.
Turning to `Cc1ccc(-c2cc(Oc3nc(Cl)cs3)cc(C(=O)N[C@H](C)c3ccc(C)nc3)c2)nc1` [Compound 384], the IC50 on hP2X2/3H (setting [1]) and at hP2X3 (setting [2]) was less than 100 nM in each case.
Regarding `Cc1ccc(-c2cc(C(=O)NCc3ccc(Cl)cc3Cl)cc(S(C)(=O)=O)c2)nc1` [Compound 385], the IC50 on hP2X2/3H (setting [1]) and on hP2X3 (setting [2]) was 100 to 500 nM throughout.
With `Cc1ccc(-c2cc(C(=O)NC(C)c3ccc(Cl)cc3Cl)cc(S(C)(=O)=O)c2)nc1` (stereo not shown) [Compound 387], the IC50 is greater than 1000 nM on hP2X2/3H (setting [1]) and 100 to 500 nM on hP2X3 (setting [2]).
On the same counts, the results for `Cc1ccc(-c2cc(C(=O)NCc3ccc(C)nc3)cc(C(O)CN3CC(O)C3)c2)cc1` (stereo not shown) [Compound 388] are 100 to 500 nM and less than 100 nM.
In the case of `COC1CCN(CC(O)c2cc(C(=O)NCc3ccc(C)nc3)cc(-c3ccc(C)cc3)c2)CC1` (stereo not shown) [Compound 389], the IC50 was 100 to 500 nM at hP2X2/3H (setting [1]) and less than 100 nM at hP2X3 (setting [2]).
The matching figures for `Cc1ccc(-c2cc(C(=O)NCc3ccc(C)nc3)cc(C(O)CN3CCOCC3CO)c2)cc1` (stereo not shown) [Compound 390]: less than 100 nM and less than 100 nM.
Consider `Cc1ccc(-c2cc(C(=O)NCc3ccc(C)nc3)cc(C(O)CN3CC(C)OC(C)C3)c2)cc1` (stereo not shown) [Compound 391], for which the IC50 at hP2X2/3H (setting [1]) and at hP2X3 (setting [2]) was less than 100 nM each time.
On to `Cc1ccc(-c2cc(Oc3nc4ccccc4s3)cc(C(=O)N[C@H](C)c3ccc(C)nc3)c2)c(C#N)c1` [Compound 392], for which the IC50 on hP2X2/3H (setting [1]) and at hP2X3 (setting [2]) was 100 to 500 nM each time.
With `Cc1ccc(-c2cc(Oc3nc4c(s3)CCCC4)cc(C(=O)N[C@H](C)c3ccc(C)nc3)c2)cc1` [Compound 393], the IC50 on hP2X2/3H (setting [1]) and on hP2X3 (setting [2]) was 100 to 500 nM in each case.
On to `Cc1ccc(-c2cc(Oc3nc(Cl)cs3)cc(C(=O)N[C@H](C)c3ccc(C)nc3)c2)c(C#N)c1` [Compound 395], for which the IC50 at hP2X2/3H (setting [1]) and on hP2X3 (setting [2]) was less than 100 nM each time.
As for `CCC(O)c1cc(C(=O)N[C@H](C)c2cnc(C)nc2)cc(-c2ccc(C)cc2C#N)c1` (stereo partly shown) [Compound 396], the IC50 on hP2X2/3H (setting [1]) and on hP2X3 (setting [2]) was less than 100 nM throughout.
As for `Cc1ccc(-c2cc(C(=O)N[C@H](C)c3cnc(C)nc3)cc(C(O)C(C)C)c2)cc1` (stereo partly shown) [Compound 397], the IC50 at hP2X2/3H (setting [1]) and on hP2X3 (setting [2]) was less than 100 nM in each case.
Consider `Cc1ccc(-c2cc(C(=O)N[C@H](C)c3cnc(C)nc3)cc(C(C)(C)O)c2)cc1` [Compound 398], for which the IC50 on hP2X2/3H (setting [3]) and on hP2X3 (setting [3]) was less than 100 nM each time.
For the molecule `Cc1ccc(-c2cc(C(=O)NCc3ccc(C)nc3)cc(C(O)CN3CC4CN(C)CC4C3)c2)cc1` (stereo not shown) [Compound 399], the IC50 on hP2X2/3H (setting [3]) was 501 to 1000 nM; on hP2X3 (setting [3]), 100 to 500 nM.

Source of the values: patent US8946439B2, “Amide compounds, compositions and uses thereof” (Evotec AG, priority 2008, dated 2015).
